From patent US10947227B2, “Tricyclic heterocyclic compounds as sting activators” (Incyte Corporation, priority 2018, dated 2021)

Experiments:
[1] = biological target: human STING (Homo sapiens, UniProt Q86WV6); settings: cited from earlier work
[2] = tested on: established tumors; settings: preclinical mouse models; cited from earlier work
[3] = tested on: IRF3 activation in THP-1 Dual Cells; experiment: IRF3 activation assay in THP-1 Dual Cells (QUANTI-Blue readout); format: cell-based; settings: Homo sapiens, THP1-Dual, 24 h, Table 2, 24 hours incubation
Summary of the method: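 THP-1 Dual cells (100,000/well) were incubated with serially diluted compounds 24 h at 37 °C. […]; EC50 from percent control activity versus log concentration.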

Chain of human STING (Q86WV6 whole entry H232R): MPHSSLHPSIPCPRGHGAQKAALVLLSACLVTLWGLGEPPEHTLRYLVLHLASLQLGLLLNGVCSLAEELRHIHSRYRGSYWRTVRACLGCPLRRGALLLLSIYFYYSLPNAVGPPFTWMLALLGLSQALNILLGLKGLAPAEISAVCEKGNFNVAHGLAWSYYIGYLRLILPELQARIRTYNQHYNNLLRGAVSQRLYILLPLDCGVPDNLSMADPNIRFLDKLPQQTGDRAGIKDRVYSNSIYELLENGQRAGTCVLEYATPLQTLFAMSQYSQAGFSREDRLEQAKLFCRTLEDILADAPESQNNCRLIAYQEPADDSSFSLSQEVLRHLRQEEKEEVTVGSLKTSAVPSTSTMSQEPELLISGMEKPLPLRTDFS

Row | EC50 [3] [nM] | Structure (SMILES) | bind and activate human STING [1] | anti-tumor activity [2]
1 | – | Cc1ccc2c(=O)c3cccc(CC(=O)O)c3oc2c1C [DMXAA, 5,6-dimethylxanthenone-4-acetic acid] | not human STING | excellent anti-tumor activity
2 | 50 to 200 | CCn1nc(C)cc1C(=O)Nc1nc2cc(C(N)=O)cc(OCCCNC(=O)CCC(=O)O)c2n1C/C=C/Cn1c2nc(-c3cc(C)nn3CC)ncc2c2cc(C(N)=O)cc(OCCCOC)c21 [Example 59, (E)-4-((3-((5-carbamoyl-1-(4-(6-carbamoyl-2-(1-ethyl-3-methyl-1H-pyrazol-5-yl)-8-(3-methoxypropoxy)-9H-pyrimido[4,5-b]indol-9-yl)but-2-en-1-yl)-2-(1-ethyl-3-methyl-1H-pyrazole-5-carboxamido)-1H-benzo[d]imidazol-7-yl)oxy)propyl)amino)-4-oxobutanoic Acid] | – | –
